Data reported in ChEMBL document CHEMBL4219202, “C21 steroidal glycosides with cytotoxic activities from Cynanchum otophyllum” (Bioorg Med Chem Lett, 2018).

Legend:
Type in all cases: functional, cell-based
MCF7 = assay: Cytotoxicity against human MCF7 cells assessed as reduction in cell viability after 48 hrs by MTS assay; conditions: MCF7, 48 h
SW480 = assay: Cytotoxicity against human SW480 cells assessed as reduction in cell viability after 48 hrs by MTS assay; conditions: SW480, 48 h
A549 = assay: Cytotoxicity against human A549 cells assessed as reduction in cell viability after 48 hrs by MTS assay; conditions: A549, 48 h
HL-60 = assay: Cytotoxicity against human HL60 cells assessed as reduction in cell viability after 48 hrs by MTS assay; conditions: HL-60, 48 h
SMMC-7721 = assay: Cytotoxicity against human SMMC7721 cells assessed as reduction in cell viability after 48 hrs by MTS assay; conditions: SMMC-7721, 48 h

Structure (SMILES) | IC50 (MCF7) | IC50 (SW480) | IC50 (A549) | IC50 (HL-60) | IC50 (SMMC-7721)
CO[C@H]1C[C@H](O[C@H]2CC[C@@]3(C)C(=CC[C@]4(O)[C@@H]3C[C@@H](OC(=O)c3ccc(O)cc3)[C@@]3(C)[C@]4(O)CC[C@@]3(O)C(C)=O)C2)O[C@H](C)[C@H]1O[C@H]1C[C@H](OC)[C@H](O[C@H]2C[C@@H](OC)[C@H](O)[C@@H](C)O2)[C@@H](C)O1 | > 40 µM | > 40 µM | > 40 µM | 29.1 µM | > 40 µM
CO[C@H]1C[C@H](O[C@H]2[C@@H](OC)C[C@H](O[C@H]3CC[C@]4(C)[C@H]5C[C@@H](OC(=O)/C=C(\C)C(C)C)[C@@]6(C)[C@](O)(CC[C@@]6(O)C(C)=O)[C@]5(O)C[C@@H]5O[C@@]54C3)O[C@@H]2C)O[C@H](C)[C@H]1O | > 40 µM | > 40 µM | > 40 µM | 15.8 µM | > 40 µM
CO[C@H]1C[C@H](O[C@H]2CC[C@@]3(C)C(=CC[C@]4(O)[C@@H]3C[C@@H](OC(=O)/C=C/C(C)C)[C@@]3(C)[C@]4(O)CC[C@@]3(O)C(C)=O)C2)O[C@H](C)[C@H]1O[C@H]1C[C@H](OC)[C@H](O[C@H]2C[C@@H](OC)[C@H](O)[C@@H](C)O2)[C@@H](C)O1 | > 40 µM | > 40 µM | > 40 µM | 25.8 µM | > 40 µM
CO[C@H]1C[C@H](O[C@H]2[C@@H](OC)C[C@H](O[C@H]3CC[C@@]4(C)C(=CC[C@]5(O)[C@@H]4C[C@@H](OC(=O)/C=C/c4ccccc4)[C@@]4(C)[C@]5(O)CC[C@@]4(O)C(C)=O)C3)O[C@@H]2C)O[C@H](C)[C@H]1O | 25.6 µM | 36.7 µM | 35.5 µM | 20.6 µM | 33.1 µM
CO[C@H]1C[C@H](O[C@H]2CC[C@@]3(C)C(=CC[C@]4(O)[C@@H]3C[C@@H](OC(=O)/C=C(\C)C(C)C)[C@@]3(C)[C@]4(O)CC[C@@]3(O)C(C)=O)C2)O[C@H](C)[C@H]1O[C@H]1C[C@H](O)[C@H](O[C@H]2C[C@@H](OC)[C@H](O)[C@@H](C)O2)[C@@H](C)O1 | 17.2 µM | 24.8 µM | 30.4 µM | 12.9 µM | 27.4 µM
CO[C@H]1C[C@H](O[C@H]2CC[C@@]3(C)C(=CC[C@]4(O)[C@@H]3C[C@@H](OC(=O)c3ccccc3)[C@@]3(C)[C@]4(O)CC[C@@]3(O)C(C)=O)C2)O[C@H](C)[C@H]1O[C@H]1C[C@@H](OC)[C@H](O)[C@@H](C)O1 | > 40 µM | > 40 µM | > 40 µM | 15.6 µM | > 40 µM
CO[C@H]1C[C@H](O[C@H]2CC[C@@]3(C)C(=CC[C@]4(O)[C@@H]3C[C@@H](OC(=O)/C=C(\C)C(C)C)[C@@]3(C)[C@]4(O)CC[C@@]3(O)C(C)=O)C2)O[C@H](C)[C@H]1O[C@H]1C[C@H](OC)[C@H](O[C@H]2C[C@@H](OC)[C@H](O)[C@@H](C)O2)[C@@H](C)O1 | 16.1 µM | 30.3 µM | 27.7 µM | 11.4 µM | 27.9 µM
CO[C@H]1C[C@H](O[C@H]2CC[C@@]3(C)C(=CC[C@]4(O)[C@@H]3C[C@@H](OC(=O)/C=C(\C)C(C)C)[C@@]3(C)[C@]4(O)CC[C@@]3(O)C(C)=O)C2)O[C@H](C)[C@H]1O[C@H]1C[C@H](OC)[C@H](O[C@H]2C[C@@H](OC)[C@H](O[C@H]3C[C@@H](OC)[C@H](O)[C@@H](C)O3)[C@@H](C)O2)[C@@H](C)O1 | 18 µM | 28.8 µM | > 40 µM | 12.2 µM | 30.8 µM
COc1cc(C(=O)O[C@@H]2C[C@@H]3[C@@]4(C)CC[C@H](O[C@H]5C[C@H](O)[C@H](O[C@H]6C[C@H](OC)[C@H](O[C@H]7C[C@@H](OC)[C@H](O)[C@@H](C)O7)[C@@H](C)O6)[C@@H](C)O5)CC4=CC[C@@]3(O)[C@@]3(O)CC[C@@](O)(C(C)=O)[C@@]23C)ccc1O | > 40 µM | > 40 µM | > 40 µM | 37.9 µM | > 40 µM
CO[C@H]1C[C@H](O[C@H]2CC[C@@]3(C)C(=CC[C@]4(O)[C@@H]3C[C@@H](OC(=O)/C=C(\C)C(C)C)[C@@]3(C)[C@]4(O)CC[C@@]3(O)C(C)=O)C2)O[C@H](C)[C@H]1O[C@H]1C[C@@H](OC)[C@H](O)[C@@H](C)O1 | > 40 µM | > 40 µM | > 40 µM | 15.4 µM | > 40 µM
CO[C@H]1C[C@H](O[C@H]2[C@@H](O)C[C@H](O[C@H]3CC[C@@]4(C)C(=CC[C@]5(O)[C@@H]4C[C@@H](OC(=O)/C=C(\C)C(C)C)[C@@]4(C)[C@]5(O)CC[C@@]4(O)C(C)=O)C3)O[C@@H]2C)O[C@H](C)[C@H]1O | > 40 µM | > 40 µM | > 40 µM | 15.7 µM | > 40 µM
C/C=C(\C)C(=O)O[C@@H]1C[C@@H]2[C@@]3(C)CC[C@H](O[C@H]4C[C@H](OC)[C@H](O[C@H]5C[C@H](OC)[C@H](O[C@H]6C[C@@H](OC)[C@H](O)[C@@H](C)O6)[C@@H](C)O5)[C@@H](C)O4)CC3=CC[C@@]2(O)[C@@]2(O)CC[C@@](O)(C(C)=O)[C@@]12C | > 40 µM | > 40 µM | > 40 µM | 15.6 µM | > 40 µM
CO[C@H]1C[C@H](O[C@H]2CC[C@@]3(C)C(=CC[C@]4(O)[C@@H]3C[C@@H](OC(=O)/C=C(\C)C(C)C)[C@@]3(C)[C@]4(O)CC[C@@]3(O)C(C)=O)C2)O[C@H](C)[C@H]1O | > 40 µM | > 40 µM | > 40 µM | 25.6 µM | > 40 µM
